The text below walks through data of ChEMBL document CHEMBL1127255, “Synthesis of the benzofuran analogue of ILV, a new protein kinase C (PKC) activator” (Bioorg Med Chem Lett, 1994).

This test addresses Protein kinase C alpha type (Homo sapiens, UniProt P17252). As to the kind of experiment: Displacement of [3H]PDBu from PKC alpha expressed in Sf9 cells. A general note: In a radioligand displacement assay an active substance lowers the binding of a labelled ligand.

In general, Ki refers to a dissociation constant, usually derived from enzyme kinetics or from competition with a known ligand. For `CC(C)[C@H]1C(=O)N[C@H](CO)Cc2coc3cccc(c23)N1C`, the Ki worked out at 17.3 nM.
Compound `CC(C)[C@H]1C(=O)N[C@H](CO)Cc2c[nH]c3cccc(c23)N1C` [INDOLACTUM] had an inhibition constant Ki of 11 nM.
